Data from article PMC8399565, “Fluorescence Cross-Correlation Spectroscopy Yields True Affinity and Binding Kinetics of Plasmodium Lactate Transport Inhibitors” (Pharmaceuticals, 2021).
Entries after “also recorded” stand apart in the source; their conditions may differ.

What was measured:
PfFNT = conditions: cited from earlier work; for IC50: PfFNT expressed in Saccharomyces cerevisiae yeast
PfFNT-GFP = target: T1, PfFNT-GFP (Plasmodium falciparum, UniProt O77389); assay: FCCS loss of signal screening competition assay; format: binding
T1 construct: The DNA of full-length PfFNT from Plasmodium falciparum 3D7 was cloned as a C-terminal GFP fusion; expressed in transfected cells; intact cells for imaging, LMNG-solubilized membranes or lysates for FCCS
Method: With a loss of signal screening assay using the GFP fusion of PfFNT wildtype and BH296-DY647 as the interaction pair, we set out to test the FCCS approach on a selection of 26 compounds that were validated before using functional lactate transport assays in yeast. In more detail, HEK cell lysates were adjusted to a PfFNT-GFP concentration of 4 nM and mixed with fluorescence-labeled BH296-DY647 at a final concentration of 80 nM, approximating the previously determined KD-value of this interaction. A total of 20 µL of the mix was then dispensed into the wells of a glass-bottom 384 microtiter plate. […] The wells were then analyzed by FCCS, Ki values were determined, and compared by a scatter plot to the IC50 values from the previous functional assays in yeast (Figure 6). […]
FCCS measurements were conducted in 384-well glass-bottom plates (cat. no PS96B-G175, SWISSCI, Switzerland) using an Insight plate reader (Evotec Technologies, Germany) fitted with a U-Apo300 40x water immersion lens, NA 1.15 (Olympus, Japan). […] Fluorescence fluctuations were recorded for 8 s with 12 repetitions and analyzed afterward using FCS+plus Analyze 1.1P (Evotec technologies, Version 1.2.5g). […] All KD and IC50 values, as well as kinetic parameters, were determined from three independently repeated experiments. […]

[1] = tested on: Plasmodium falciparum 3D7 parasites; set-up: method as in PMID 23798988; conditions: in vitro; cited from earlier work
[2] = tested on: resistant parasites that carried a single PfFNT G107S point mutation; set-up: method as in PMID 23798988; conditions: cited from earlier work
PfFNT G107S = tested on: PfFNT G107S; set-up: method as in PMID 23798988; conditions: PfFNT G107S point mutation; cited from earlier work

T1 sequence (O77389 whole entry, the tested form may be a part): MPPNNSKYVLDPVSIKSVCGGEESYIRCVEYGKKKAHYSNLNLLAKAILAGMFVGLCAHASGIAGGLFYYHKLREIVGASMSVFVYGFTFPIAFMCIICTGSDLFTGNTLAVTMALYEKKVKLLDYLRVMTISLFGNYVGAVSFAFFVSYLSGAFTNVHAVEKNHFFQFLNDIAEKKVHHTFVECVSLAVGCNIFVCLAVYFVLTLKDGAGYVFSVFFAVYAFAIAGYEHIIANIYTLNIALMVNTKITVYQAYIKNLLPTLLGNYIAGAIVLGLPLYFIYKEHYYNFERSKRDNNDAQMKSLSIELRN

| SMILES | activity in functional yeast lactate transport assay (PfFNT; validated before) | Ki (PfFNT-GFP) [nM] | Ki (affinity) from FCCS competition screen (PfFNT-GFP; 4 nM PfFNT-GFP, 80 nM BH296-DY647, 1 h room temperature) | EC50 [1] [nM] | IC50 (PfFNT) [nM] | EC50 [2] [nM] | IC50 (PfFNT G107S) [nM] |
| --- | --- | --- | --- | --- | --- | --- | --- |
| O=C(/C=C(\O)C(F)(F)C(F)(F)F)c1ccc(C(=O)/C=C(\O)C(F)(F)C(F)(F)F)cc1 [BH454] | little activity; also recorded: not very effective | < 100 | double-digit nanomolar range | – | – | – | – |
| O=C1CC(O)(C(F)(F)C(F)(F)F)Oc2ccccc21 (stereo not drawn) [MMV000972, reference compound] | – | – | – | 1700 | 170 | – | – |
| COc1ccc2c(c1)OC(O)(C(F)(F)C(F)(F)F)CC2=O (stereo not drawn) [MMV007839] | – | – | – | 140 | 170 | 35000 | 21000 |
